Experimental findings from patent US12227500B2, “Substituted pyrrolo[2,3-b]pyridines for suppressing toxic endoplasmic reticulum stress” (THE TRUSTEES OF COLUMBIA UNIVERSITY IN THE CITY OF NEW YORK, priority 2018, dated 2025) are described below.

“And” between values parts separate entries of the source, which are not always exact repeats. Equal values may be shown once. Read-outs that look alike come from different tables or passages of the source.

For series [1], the system named is human ES motor neurons. As to the kind of experiment: Rescue of CPA toxicity by kinase inhibitors in dilution series (FIG. 3). To be noted: for rescue of CPA toxicity: dilution series, FIG. 3.
The target of series [2] is T1, MLK3/MAP3K11 (Homo sapiens, UniProt Q16584).
T1 construct: purchased Reaction Biology Corp
As to the kind of experiment: Radiolabeled ATP kinase assay (Reaction Biology Corp.), MLK3. It counts as biochemical. Conditions: [Cmpd] 0.1 μM; 10 μM ATP. The procedure:
(§1) Meanwhile, the same analogs were analyzed in a radiolabeled ATP assay (10 μM ATP; Reaction Biology Corp.) to compare the extent to which they could inhibit the activity of HGK, MLK1, or MLK3 in a cell-free environment (Table S3 and S4).

The target in series [3] is T2, MLK1/MAP3K9 (Homo sapiens, UniProt P80192).
T2 construct: purchased Reaction Biology Corp
As to the kind of experiment: Radiolabeled ATP kinase assay (Reaction Biology Corp.), MLK1. The series is classed as biochemical. To be noted: [Cmpd] 0.1 μM, 10 μM ATP. The procedure: as §1

In series [4] the target is HGK/MAP4K4 (Homo sapiens, UniProt O95819). As to the kind of experiment: Radiolabeled ATP kinase assay (Reaction Biology Corp.), HGK. Conditions: 10 μM ATP, read-out: % Enzyme Activity (relative to DMSO controls), HGK/MAP4K4, Data 1; for remaining activity at 0.025 µM: [Cmpd] 0.025 μM; for remaining activity at 0.1 µM: [Cmpd] 0.1 μM. More on the design: purchased Reaction Biology Corp. The series is classed as biochemical. As to the method:
as §1

Series [5] can be described thus: in vitro. To be noted: CD-1, mouse, liver microsomes, pH 7.4.
Method: To test the metabolic stability of the analogs, an in vitro microsomal stability assay was carried out.
The microsomal stability assay was performed in 96-well format (Perkin-Elmer, StorPlate-96U, PP, 96 well, round bottom). […] A stock solution of the compound to be analyzed (0.8 μL. 5 mM) or ethoxycoumarin (positive control, 0.8 μL, 5 mM) was added and the mixture was warmed to 37° C. for 5 minutes. The mouse microsomes (CD-1, 5 μL, thawed in a 37° C. water bath before use, 20 mg/mL, Life Technologies) were added. At selected time points (0, 15, 30, 45, 60 and 120 minutes) aliquots (15 μL) were withdrawn from the plate and quenched upon addition to cold acetonitrile (60 μL), containing an internal standard (5 μM) in a 96-well plate. The samples were centrifuged at 13,000 rpm for 10 minutes at 4° C. The supernatant (40 μL) was withdrawn and transferred to a sample vial with insert. The samples were analyzed by LC-MS.
LC-MS analysis was performed on a platform comprising a Thermo Scientific Dionex Ultimate 3000 and a Bruker amaZon SL equipped with an electrospray ionization source controlled by Bruker Hystar 3.2. […] The flow rate was maintained at 400 μL/min. The initial flow conditions were 60% solvent A (water containing 0.1% acetic acid) and 40% solvent B (methanol containing 0.1% acetic acid).
Aliquots were taken over the course of two hours and analyzed by HPLG-MS using an internal standard to assess compound stability over time.
Series [6] concerns human ES motor neurons carrying the ALS-causing SOD1^A4V mutation. As to the kind of experiment: cells. The series is classed as cell-based. To be noted: for EC50 / viability at 1 µM / Emax: Homo sapiens, Neuron, 72 h; for EC50: read-out: EC50; for viability at 1 µM: CPA (33 μM) + compound (1 μM), read-out: Motor Neuron Survival, % untreated; for Emax: read-out: Emax (MN survival % untreated). The procedure:
Next, survival assays were performed with all the analogs at once to generate a low-variability dataset. All compounds were evaluated at concentrations ranging from 0.1-3.0 μM (five-point dilution) in three technical replicates and two biological replicates.

A short description of series [7]: Plasma and brain concentration 30 min after IP injection. It counts as in vivo, mouse. To be noted: mice, ip dosing; for Kp at 30 min / concentration at 30 min: male, C57BL6/J, mouse; for Kp at 30 min: brain/plasma, read-out: B/P. The procedure: All studies were performed on 6-week old male C57BL6/J mice that were housed in the Columbia University Medical Center facility in a 12h light/dark cycle with access to food and water ad libitum. All animal procedures were approved by the Columbia University IACUC. […] Animals were weighed and injected once intraperitoneally (IP) at the indicated dose (10 or 20 mg/kg). After 30 min, animals were deeply anesthetized with 2.5% Avertin. Whole blood was collected by cardiac puncture in tubes containing 0.5M EDTA as an anticoagulant, and centrifuged for 10 min at 845 rcf at 4° to isolate plasma. Following cardiac puncture, animals were decapitated and brains were dissected and weighed. Brain samples were homogenized with a glass dounce homogenizer in 5 volumes of ddH2O. Brain and plasma samples were snap frozen in liquid nitrogen and stored at −80° C. before further processing.
The plasma samples were transferred to Eppendorf tubes (50 μL per sample) and diluted with acetonitrile (200 μL). The samples were sonicated for 1 minute followed by centrifugation at 16,000 rpm for 10 minutes. The supernatant was transferred to another Eppendorf tube and the solvent evaporated overnight. The samples were reconstituted in a mixture of 40 μL acetonitrile and 10 μL water transferred to a sample vial with insert, and analyzed by LC-MS.
The homogenized brain samples (250 μL) were transferred to Eppendorf tubes and diluted with acetonitrile (750 μL). The samples were sonicated for 1 minute followed by centrifugation at 16,000 rpm for 10 minutes. The supernatant (900 μL) was transferred to another Eppendorf tube and the solvent evaporated overnight. The samples were reconstituted in a mixture of 80 μL acetonitrile and 20 μL water, transferred to a sample vial with insert, and analyzed by LC-MS.
LC-MS analysis was performed on a platform comprising a Thermo Scientific Dionex Ultimate 3000 and a Bruker amaZon SL equipped with an electrospray ionization source controlled by Bruker Hystar 3.2. The compound concentration in each plasma sample was determined using a calibration curve. Chromatographic separation was performed by injecting 10 μL of the sample onto an Agilent Eclipse Plus C18 column (2.1×50 mm, 3.5 μm) maintained at 20° C. The flow rate was maintained at 400 μL/min. The initial flow conditions were 60% solvent A (water containing 0.1% acetic acid) and 40% solvent B (methanol containing 0.1% acetic acid). Solvent B was raised to 60% over 0.25 minutes and to 70% by 6.75 minutes.

For series [8], the system named is human stem cell-derived motor neurons derived from a healthy patient. As to the kind of experiment: CPA survival assay, wild-type human stem cell-derived motor neurons. Conditions: 8-point dilution series.
Series [9] has as its system ESC-derived spinal motor neurons and interneurons. As to the kind of experiment: Toxicity of ER stressors in mouse ESC-derived spinal neuron cultures. The series is classed as cell-based. To be noted: co-cultures, increasing concentrations. The source says:
One of the selective stressors that we identified was cyclopiazonic acid (CPA), a mycotoxin that reversibly blocks the sarcoendoplasmic reticulum-associated calcium ATPse (SERCA). SERCA is responsible for sequestering calcium from the cytoplasm into the endoplasmic reticulum (ER) (Goeger et al. 1988). SERCA inhibition lowers calcium concentration in the ER, leading to dysfunction of protein folding, activation of the unfolded protein response, ER stress, and apoptosis (Doutheil et al. 1997). […]. For all subsequent experiments, unless stated otherwise, motor neurons were treated with 7.5 μM CPA.
[…]. […] […].
For this analysis, we generated a new ESC line that expresses tdTomato in dI4 and dIL dorsal spinal inhibitory interneurons derived from Ptf1α-expressing progenitors (Hoang et al. 2017, unpublished data). We differentiated this line under conditions that promote the specification of dorsal interneuron identity. FACS-purified tdTomato-expressing interneurons were co-cultured with FACS-purified GFP-expressing spinal motor neurons (FIG. 16E and FIG. 16G).
To strengthen the link between the activation of ER stress and motor neuron degeneration, we extended our study to include two additional compounds that activate ER stress: thapsigargin, a drug that acts similarly to CPA by inhibiting SERCA pumps, but is irreversible (Lytton et al. 1991), and tunicamycin, a drug that triggers ER stress in a calcium-independent manner by inhibiting protein N-glycosylation in the ER (Oslowski et al. 2011). […] Thus, the motor neuron-toxic effects of CPA are likely related to its activation of ER stress pathways and not to its effects on calcium levels or other off-target effects (FIG. 16G).

The mark [10] stands for this setting: read-out: % Enzyme Activity Remaining (relative to DMSO controls), MLK1/MAP3K9, Data 1.
Setting [11] is: read-out: % Enzyme Activity Remaining (relative to DMSO controls), MLK1/MAP3K9, Data 2.

T2 sequence (P80192 whole entry): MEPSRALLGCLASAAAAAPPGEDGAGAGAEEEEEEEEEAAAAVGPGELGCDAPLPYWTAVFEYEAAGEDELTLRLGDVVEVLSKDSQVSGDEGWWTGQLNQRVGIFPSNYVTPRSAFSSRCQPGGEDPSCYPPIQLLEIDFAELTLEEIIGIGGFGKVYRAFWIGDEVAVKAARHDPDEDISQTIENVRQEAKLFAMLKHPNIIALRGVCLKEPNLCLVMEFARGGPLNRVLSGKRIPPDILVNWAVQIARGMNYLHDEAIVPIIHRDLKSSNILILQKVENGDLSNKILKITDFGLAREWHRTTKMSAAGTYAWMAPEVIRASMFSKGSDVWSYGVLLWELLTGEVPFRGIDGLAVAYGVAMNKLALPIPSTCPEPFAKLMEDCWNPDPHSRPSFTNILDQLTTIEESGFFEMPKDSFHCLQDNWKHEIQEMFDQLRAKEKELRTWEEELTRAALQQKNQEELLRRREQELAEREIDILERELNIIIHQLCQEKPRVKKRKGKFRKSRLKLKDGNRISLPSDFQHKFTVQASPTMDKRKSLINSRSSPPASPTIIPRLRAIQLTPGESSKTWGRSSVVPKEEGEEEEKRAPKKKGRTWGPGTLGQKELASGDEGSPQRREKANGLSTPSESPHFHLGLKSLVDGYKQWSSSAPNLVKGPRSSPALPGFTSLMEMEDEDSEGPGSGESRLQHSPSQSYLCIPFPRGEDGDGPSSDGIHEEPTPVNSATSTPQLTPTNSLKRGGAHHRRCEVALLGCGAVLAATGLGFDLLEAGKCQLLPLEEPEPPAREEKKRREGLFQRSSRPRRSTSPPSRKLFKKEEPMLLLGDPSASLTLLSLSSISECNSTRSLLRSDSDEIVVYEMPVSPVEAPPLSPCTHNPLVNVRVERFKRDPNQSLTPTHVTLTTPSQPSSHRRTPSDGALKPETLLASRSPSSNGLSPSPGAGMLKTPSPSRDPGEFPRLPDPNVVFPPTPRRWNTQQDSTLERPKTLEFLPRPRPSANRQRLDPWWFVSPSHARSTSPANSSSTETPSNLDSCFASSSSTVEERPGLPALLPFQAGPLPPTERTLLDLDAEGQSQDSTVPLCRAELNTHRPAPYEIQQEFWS
T1 sequence (Q16584 whole entry): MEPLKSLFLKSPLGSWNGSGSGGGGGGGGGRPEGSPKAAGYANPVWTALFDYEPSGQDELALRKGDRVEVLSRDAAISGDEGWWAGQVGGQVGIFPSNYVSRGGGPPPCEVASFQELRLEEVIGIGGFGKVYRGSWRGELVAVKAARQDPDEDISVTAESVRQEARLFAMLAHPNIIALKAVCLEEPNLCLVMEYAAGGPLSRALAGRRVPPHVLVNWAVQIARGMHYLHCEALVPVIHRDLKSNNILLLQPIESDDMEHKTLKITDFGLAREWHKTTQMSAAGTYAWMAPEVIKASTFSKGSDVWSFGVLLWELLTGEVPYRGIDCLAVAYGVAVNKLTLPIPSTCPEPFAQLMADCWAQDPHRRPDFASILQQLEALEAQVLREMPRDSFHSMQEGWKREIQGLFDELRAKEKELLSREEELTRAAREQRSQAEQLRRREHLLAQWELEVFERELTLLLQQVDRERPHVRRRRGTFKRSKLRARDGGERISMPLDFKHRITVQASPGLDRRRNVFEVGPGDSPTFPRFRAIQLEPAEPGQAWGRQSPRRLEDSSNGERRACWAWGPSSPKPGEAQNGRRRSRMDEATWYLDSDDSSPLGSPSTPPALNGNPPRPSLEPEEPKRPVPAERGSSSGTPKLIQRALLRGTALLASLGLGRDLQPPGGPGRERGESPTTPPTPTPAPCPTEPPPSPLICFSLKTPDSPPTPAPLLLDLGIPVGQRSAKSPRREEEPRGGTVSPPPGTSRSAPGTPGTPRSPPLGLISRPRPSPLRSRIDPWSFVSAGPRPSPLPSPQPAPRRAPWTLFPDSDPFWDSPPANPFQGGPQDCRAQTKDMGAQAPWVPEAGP
HGK/MAP4K4, sequence (O95819 whole entry): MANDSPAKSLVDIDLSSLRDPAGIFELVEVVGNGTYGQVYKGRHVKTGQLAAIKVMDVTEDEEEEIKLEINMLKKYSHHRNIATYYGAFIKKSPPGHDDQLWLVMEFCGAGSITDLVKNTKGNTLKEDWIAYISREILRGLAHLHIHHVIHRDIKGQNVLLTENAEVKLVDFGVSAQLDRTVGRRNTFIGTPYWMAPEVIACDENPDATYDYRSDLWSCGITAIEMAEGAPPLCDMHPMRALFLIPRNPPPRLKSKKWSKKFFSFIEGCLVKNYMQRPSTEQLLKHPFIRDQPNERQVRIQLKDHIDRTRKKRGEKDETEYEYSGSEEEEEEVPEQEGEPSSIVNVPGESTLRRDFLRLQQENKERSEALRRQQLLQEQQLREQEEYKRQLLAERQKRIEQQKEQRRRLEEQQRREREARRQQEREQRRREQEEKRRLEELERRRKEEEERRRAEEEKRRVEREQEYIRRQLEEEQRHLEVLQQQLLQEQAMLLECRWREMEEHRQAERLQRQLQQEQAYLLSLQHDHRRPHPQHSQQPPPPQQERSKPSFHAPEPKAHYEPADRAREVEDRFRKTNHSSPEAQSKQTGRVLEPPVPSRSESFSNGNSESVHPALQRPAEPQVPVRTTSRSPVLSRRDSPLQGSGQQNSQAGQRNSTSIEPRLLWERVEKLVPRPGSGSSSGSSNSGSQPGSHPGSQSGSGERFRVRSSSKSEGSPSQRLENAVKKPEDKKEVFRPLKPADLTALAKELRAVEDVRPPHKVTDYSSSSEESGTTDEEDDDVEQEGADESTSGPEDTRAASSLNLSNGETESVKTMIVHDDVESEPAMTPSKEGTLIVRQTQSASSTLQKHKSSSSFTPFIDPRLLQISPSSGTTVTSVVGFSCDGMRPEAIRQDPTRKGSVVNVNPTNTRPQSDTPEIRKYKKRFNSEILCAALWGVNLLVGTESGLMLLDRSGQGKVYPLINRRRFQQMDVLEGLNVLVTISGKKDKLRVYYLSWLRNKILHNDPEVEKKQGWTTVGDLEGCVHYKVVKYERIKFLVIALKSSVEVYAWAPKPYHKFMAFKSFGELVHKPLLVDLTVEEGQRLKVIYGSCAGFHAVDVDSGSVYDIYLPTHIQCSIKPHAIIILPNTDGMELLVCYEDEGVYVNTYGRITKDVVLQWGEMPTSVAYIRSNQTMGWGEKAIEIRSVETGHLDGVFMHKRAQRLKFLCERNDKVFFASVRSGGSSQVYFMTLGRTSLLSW

`CCSCc1ccc2c(c1)c1c3c(c4c5cc(CSCC)ccc5n5c4c1n2[C@H]1C[C@](O)(C(=O)OC)[C@]5(C)O1)CNC3=O` [CEP1347]: in series [1], the “rescue of CPA toxicity” value was “dose-dependent rescue of CPA toxicity”.
As a reminder, the half-life is the time needed for the level to fall by half in the phase considered. The low end stands for fast loss, the high end for slow loss. By EC50 is commonly meant the midpoint of the concentration-response curve. Consider `CN1CCN(Cc2ccc(-c3cnc4[nH]cc(-c5cccc6[nH]ncc56)c4c3)cc2)CC1` [Compound 7aa, 4-(5-(4-((4-Methylpiperazin-1-yl)methyl)phenyl)-1H-pyrrolo[2,3-b]pyridin-3-yl)-1H-indazole], for which, in series [2], the “% Enzyme Activity Remaining (relative to DMSO controls), MLK3/MAP3K11, Data 1” value came out at 31.88% and the “% Enzyme Activity Remaining (relative to DMSO controls), MLK3/MAP3K11, Data 2” value is on record as 31.78%. Also, the remaining activity at 0.1 µM in series [3] (setting [10]) was 52.9%. For the same compound, in series [3] (setting [11]), the remaining activity at 0.1 µM worked out at 51.7%. Besides, in [4], the remaining activity at 0.025 µM amounted to 2.75% and the remaining activity at 0.1 µM was -1.36%. For the same compound, in series [5], the half-life at 20 μM came out at 9 min. In series [6] (CPA 33 μM), the EC50 amounted to 0.208 µM and the Emax is 134%. For the same compound, the viability at 1 µM in series [6] worked out at 112%.
Regarding `CN1CCN(Cc2ccc(-c3cnc4[nH]cc(-c5cccc(F)c5)c4c3)cc2)CC1` [Compound 7y, 3-(3-Fluorophenyl)-5-(4-((4-methylpiperazin-1-yl)methyl)phenyl)-1H-pyrrolo[2,3-b]pyridine], in series [2], the “% Enzyme Activity Remaining (relative to DMSO controls), MLK3/MAP3K11, Data 1” value was 40.75% and the “% Enzyme Activity Remaining (relative to DMSO controls), MLK3/MAP3K11, Data 2” value is 43.09%. For the same compound, the remaining activity at 0.1 µM in series [3] (setting [10]) is 57.1%. In series [3] (setting [11]), the remaining activity at 0.1 µM worked out at 58.1%. In addition, in series [4], the remaining activity at 0.025 µM came out at 7.85% and the remaining activity at 0.1 µM was 1.53%. Further, the half-life at 20 μM in [5] was greater than 30 min. Also, in [6] (CPA 33 μM), the EC50 turned out to be 0.433 µM and the Emax is 104%. Moreover, in [6], the viability at 1 µM was 86.4%.
For `CN1CC2CCC(C1)N2Cc1ccc(-c2cnc3[nH]cc(-c4cccc(Cl)c4)c3c2)cc1` [Compound 12f, 3-(3-Chlorophenyl)-5-(4-((3-methyl-3,8-diazabicyclo[3.2.1]octan-8-yl)methyl)phenyl)-1H-pyrrolo[2,3-b]pyridine], the half-life at 20 μM in series [5] worked out at 158 min. Also, in series [6] (CPA 33 μM), the “concentration giving complete rescue from CPA” value was 0.3 µM, the EC50 stood at 0.11 µM and the Emax worked out at 116%.
Take `O[C@@H]1CCN(Cc2ccc(-c3cnc4[nH]cc(-c5cccc(F)c5)c4c3)cc2)C1` [Compound 12i, (R)-1-(4-(3-(3-Fluorophenyl)-1H-pyrrolo[2,3-b]pyridin-5-yl)benzyl)pyrrolidin-3-ol]: in series [6] (CPA 33 μM), the EC50 came to 0.05 µM. For the same compound, the Emax in series [6] (CPA 33 μM) worked out at 115%. The Kp at 30 min in series [7] (10 mg/kg) came out at 3.7; in series [7] (20 mg/kg), 2.8. The concentration at 30 min is 2240 ng/g and 5.78 µM in series [7] (10 mg/kg, read-out: brain); < 600 ng/mL and < 1.55 µM in [7] (10 mg/kg, read-out: plasma); 9780 ng/g and 25.2 µM in series [7] (20 mg/kg, read-out: brain); 3490 ng/mL and 9 µM in series [7] (20 mg/kg, read-out: plasma).
As to `O[C@@H]1CCN(Cc2ccc(-c3cnc4[nH]cc(-c5cccc(Cl)c5)c4c3)cc2)C1` [Compound 12l, (R)-1-(4-(3-(3-Chlorophenyl)-1H-pyrrolo[2,3-b]pyridin-5-yl)benzyl)pyrrolidin-3-ol], in series [6] (CPA 33 μM), the EC50 came to 0.09 µM and the Emax was 115%. For the same compound, the Kp at 30 min in series [7] (10 mg/kg) came out at 1.7. Further, in series [7] (10 mg/kg, read-out: brain), the concentration at 30 min was < 1000 ng/g and > 2.48 µM. For the same compound, in series [7] (10 mg/kg, read-out: plasma), the concentration at 30 min is < 600 ng/mL and < 1.49 µM. Besides, in series [7] (20 mg/kg), the “toxicity at this concentration” value is recorded as “^cCompound was toxic at this concentration”.
On to `CCN(CC)C(=O)c1ccc(Nc2nc(OCC3CCCCC3)c3[nH]cnc3n2)cc1` [NU6140], for which the “rescue of CPA toxicity” value in [1] is listed as “dose-dependent rescue of CPA toxicity”.
Consider `Cn1cc(/C=C2\C(=O)Nc3ccc(S(N)(=O)=O)cc32)c2ccccc21` [Syk inhibitor], for which the “rescue of CPA toxicity” value in [1] was “dose-dependent rescue of CPA toxicity”.
Consider `CCC(=O)Nc1cccc(Oc2nc(Nc3ccc(N4CCN(C)CC4)cc3OC)ncc2Cl)c1` [WZ4003], for which, in series [8], the “rescue of CPA toxicity” value is listed as “unable to rescue CPA toxicity”. In addition, in series [1], the “concentration that potentiated CPA-induced neurodegeneration and was toxic without CPA” value was no less than 1000 nM; the “rescue of CPA toxicity” value is “unable to rescue CPA toxicity”.
For `C/C=C(/C)C(=O)O[C@H]1C(C)=C2[C@H]([C@@H]1OC(=O)CCCCCCC)[C@@](C)(OC(C)=O)C[C@H](OC(=O)CCC)[C@@]1(O)[C@H]2OC(=O)[C@@]1(C)O` [thapsigargin], in series [9], the “sensitivity of spinal motor neurons vs dorsal interneurons” value was “selectively sensitive”.
Regarding JAK3 inhibitor IV, the “rescue of CPA toxicity” value in [1] is on record as “dose-dependent rescue of CPA toxicity”.
On to tunicamycin, for which, in series [9], the “sensitivity of spinal motor neurons vs dorsal interneurons” value is “selectively sensitive”.
